Activity calls are given as the source filed them. The rule behind the calls is not given here.

The data set concerns CCRIS mutagenicity, Ames/micronucleus/aberration tests. Briefly: CCRIS mutagenicity studies.
[1] abbreviates: Test System: AMES SALMONELLA TYPHIMURIUM, Strain/Indicator: TA98, Metabolic Activation: NONE, Method: STANDARD PLATE.
[2] abbreviates: Test System: AMES SALMONELLA TYPHIMURIUM, Strain/Indicator: TA98, Metabolic Activation: RAT, LIVER, S-9, AROCLOR 1254, Method: STANDARD PLATE.
[3] abbreviates: Test System: AMES SALMONELLA TYPHIMURIUM, Strain/Indicator: TA100, Metabolic Activation: NONE, Method: STANDARD PLATE.
Setting [4] is: Test System: AMES SALMONELLA TYPHIMURIUM, Strain/Indicator: TA100, Metabolic Activation: RAT, LIVER, S-9, AROCLOR 1254, Method: STANDARD PLATE.
Setting [5] is: Test System: AMES SALMONELLA TYPHIMURIUM, Strain/Indicator: TA1537, Metabolic Activation: RAT, LIVER, S-9, AROCLOR 1254, Method: STANDARD PLATE.

For `Oc1cc(Cl)c(Cl)cc1Cl`, the mutagenic call (Test System: AMES SALMONELLA TYPHIMURIUM, Strain/Indicator: TA97, Metabolic Activation: NONE, Method: STANDARD PLATE) was “active; positive”; the mutagenic call (Test System: AMES SALMONELLA TYPHIMURIUM, Strain/Indicator: TA97, Metabolic Activation: RAT, LIVER, S-9, AROCLOR 1254, Method: STANDARD PLATE) is “active; positive”; the mutagenic call (Test System: AMES SALMONELLA TYPHIMURIUM, Strain/Indicator: TA98, Metabolic Activation: NONE) is “inactive; negative”; the mutagenic call under setting [1] is “active; positive”; the mutagenic call (Test System: AMES SALMONELLA TYPHIMURIUM, Strain/Indicator: TA98, Metabolic Activation: RAT, LIVER, S-9, AROCLOR 1254) is “inactive; negative”; the mutagenic call under setting [2] is “active; positive”. Further, the mutagenic call by setting is: (Test System: AMES SALMONELLA TYPHIMURIUM, Strain/Indicator: TA100, Metabolic Activation: NONE) “inactive; negative”; under setting [3], “active; positive”; (Test System: AMES SALMONELLA TYPHIMURIUM, Strain/Indicator: TA100, Metabolic Activation: RAT, LIVER, S-9, AROCLOR 1254) “inactive; negative”; under setting [4], “inactive; negative”; (Test System: AMES SALMONELLA TYPHIMURIUM, Strain/Indicator: TA102, Metabolic Activation: NONE) “inactive; negative”; (Test System: AMES SALMONELLA TYPHIMURIUM, Strain/Indicator: TA102, Metabolic Activation: RAT, LIVER, S-9, AROCLOR 1254) “inactive; negative”. In addition, the mutagenic call was “inactive; negative” (Test System: AMES SALMONELLA TYPHIMURIUM, Strain/Indicator: TA104, Metabolic Activation: NONE); “inactive; negative” (Test System: AMES SALMONELLA TYPHIMURIUM, Strain/Indicator: TA104, Metabolic Activation: NONE, Method: STANDARD PLATE); “inactive; negative” (Test System: AMES SALMONELLA TYPHIMURIUM, Strain/Indicator: TA104, Metabolic Activation: RAT, LIVER, S-9, AROCLOR 1254); “inactive; negative” (Test System: AMES SALMONELLA TYPHIMURIUM, Strain/Indicator: TA104, Metabolic Activation: RAT, LIVER, S-9, AROCLOR 1254, Method: STANDARD PLATE); “inactive; negative” (Test System: CHINESE HAMSTER V-79, Strain/Indicator: V-79/6-THIOGUANINE, Metabolic Activation: NONE, Method: STANDARD PLATE).

For the compound `Cc1cc(N)c(C)cc1N`, the mutagenic call under setting [1] was “inactive; negative”; the mutagenic call under setting [2] was “active; positive”; the mutagenic call under setting [3] was “inactive; negative”; the mutagenic call under setting [4] was “inactive; negative”; the mutagenic call (Test System: AMES SALMONELLA TYPHIMURIUM, Strain/Indicator: TA1535, Metabolic Activation: NONE, Method: STANDARD PLATE) was “inactive; negative”; the mutagenic call (Test System: AMES SALMONELLA TYPHIMURIUM, Strain/Indicator: TA1535, Metabolic Activation: RAT, LIVER, S-9, AROCLOR 1254, Method: STANDARD PLATE) was “inactive; negative”. Further, the mutagenic call (Test System: AMES SALMONELLA TYPHIMURIUM, Strain/Indicator: TA1537, Metabolic Activation: NONE, Method: STANDARD PLATE) was “inactive; negative”; the mutagenic call under setting [5] is “inactive; negative”; the mutagenic call (Test System: AMES SALMONELLA TYPHIMURIUM, Strain/Indicator: TA1538, Metabolic Activation: NONE, Method: STANDARD PLATE) is “inactive; negative”; the mutagenic call (Test System: AMES SALMONELLA TYPHIMURIUM, Strain/Indicator: TA1538, Metabolic Activation: RAT, LIVER, S-9, AROCLOR 1254, Method: STANDARD PLATE) was “inactive; negative”.

Consider `O[C@H]1[C@H]2O[C@H]2c2c(ccc3ccc4ccccc4c23)[C@@H]1O`, for which the mutagenic call is, setting by setting: (Test System: E. COLI, Strain/Indicator: CL101P, Metabolic Activation: NONE, Method: PREINCUBATION) “active; positive”; (Test System: E. COLI, Strain/Indicator: CL102P, Metabolic Activation: NONE, Method: PREINCUBATION) “active; positive”; (Test System: E. COLI, Strain/Indicator: CL103P, Metabolic Activation: NONE, Method: PREINCUBATION) “active; positive”; (Test System: E. COLI, Strain/Indicator: CL104P, Metabolic Activation: NONE, Method: PREINCUBATION) “active; positive”; (Test System: E. COLI, Strain/Indicator: CL105P, Metabolic Activation: NONE, Method: PREINCUBATION) “active; positive”; (Test System: E. COLI, Strain/Indicator: CL106P, Metabolic Activation: NONE, Method: PREINCUBATION) “active; positive”.

Take `CCCC[C@@H](C)[C@@H](OC(=O)C[C@@H](CC(=O)O)C(=O)O)[C@H](C[C@@H](C)C[C@H](O)CCCC[C@@H](O)C[C@H](O)[C@H](C)N)OC(=O)C[C@@H](CC(=O)O)C(=O)O`: the mutagenic call reads like this: (Test System: AMES SALMONELLA TYPHIMURIUM, Strain/Indicator: TA97A, Metabolic Activation: NONE, Method: STANDARD PLATE) “inactive; negative”; (Test System: AMES SALMONELLA TYPHIMURIUM, Strain/Indicator: TA97A, Metabolic Activation: RAT, LIVER, S-9, AROCLOR 1254, Method: STANDARD PLATE) “inactive; negative”; under setting [1], “inactive; negative”; (Test System: AMES SALMONELLA TYPHIMURIUM, Strain/Indicator: TA98, Metabolic Activation: RAT LIVER S-9, Method: STANDARD PLATE) “inactive; negative”; under setting [2], “inactive; negative”; under setting [3], “inactive; negative”. Moreover, the mutagenic call runs as follows: (Test System: AMES SALMONELLA TYPHIMURIUM, Strain/Indicator: TA100, Metabolic Activation: RAT LIVER S-9, Method: STANDARD PLATE) “inactive; negative”; under setting [4], “inactive; negative”; (Test System: AMES SALMONELLA TYPHIMURIUM, Strain/Indicator: TA102, Metabolic Activation: NONE, Method: STANDARD PLATE) “inactive; negative”; (Test System: AMES SALMONELLA TYPHIMURIUM, Strain/Indicator: TA102, Metabolic Activation: RAT LIVER S-9, Method: STANDARD PLATE) “inactive; negative”; (Test System: AMES SALMONELLA TYPHIMURIUM, Strain/Indicator: TA102, Metabolic Activation: RAT, LIVER, S-9, AROCLOR 1254, Method: STANDARD PLATE) “inactive; negative”.

`[O][Cl+][O-]`: the mutagenic call (End Point: IN VIVO MICRONUCLEUS, Test System: BONE MARROW POLYCHROMATIC ERYTHROCYTES, Species: MOUSE, Strain/Sex: DDY/MALE, Route: IP) is “active; positive”.

For `Cc1ccc2nc3c(c(C)c2c1)[C@@H](O)[C@H](O)c1ccccc1-3`, the mutagenic call under setting [4] was “inactive; negative”.

As to `CC1=C[C@@H]2c3cccc4[nH]cc(c34)C[C@H]2N(C)C1`, the mutagenic call runs as follows: under setting [2], “active; positive”; under setting [3], “inactive; negative”; under setting [4], “active; positive”; under setting [5], “inactive; negative”.

The record behind these values is PubChem BioAssay AID1259407 (Chemical Carcinogenesis Research Information System (CCRIS), 2018).
